Test results reported in patent publication US20260242391A1 (priority 2023, published 2026).

Legend:
HL-60 = HL-60 differentiation potency; format: cell-based; conditions: Homo sapiens
in vitro = conditions: human

EC50 (HL-60) [nM] | IC50 (in vitro) [nM] | Compound | IC50 (in vitro; HL-60 cells) [nM]
27.6 | > 20000 | C[C@H]1[C@@H](Oc2ccc(CC(=O)N[C@@H]3CC[C@H](C(=O)O)C3)cc2)O[C@@H]2O[C@@]3(C)CC[C@H]4[C@H](C)CC[C@@H]1[C@@]24OO3 [Compound 289, (1S,3R)-3-(2-(4-(((3R,5aS,6R,8aS, 9R,10S,12R, 12aR)-3,6,9-trimethyldeca-hydro-12H-3,12-epoxy[1,2]dioxepino[4,3-i]isochromen-10-yl)oxy)phenyl)acetamido) cyclopentane-1-carboxylic acid] | –
1890 | 15200 | C[C@H]1[C@@H](O[C@H]2CC[C@@H](C(=O)N[C@H](C(=O)O)c3ccccc3)CC2)O[C@@H]2O[C@@]3(C)CC[C@H]4[C@H](C)CC[C@@H]1[C@@]24OO3 [Compound 189, (S)-2-phenyl-2-((1R,4R)-4-(((3R,5aS,6R,8aS, 9R,10S,12R, 12aR)-3,6,9-trimethyldeca-hydro-12H-3,12-epoxy[1,2]dioxepino[4,3-i]isochromen-10-yl)oxy)cyclo-hexane-1-carboxamido) acetic acid] | –
17 | 80 | C[C@H]1[C@@H](Oc2ccc(C(=O)N[C@H](C(=O)O)C3CCCCC3)cc2)O[C@@H]2O[C@@]3(C)CC[C@H]4[C@H](C)CC[C@@H]1[C@@]24OO3 [Compound 231, (S)-2-cyclohexyl-2-(4-(((3R,5aS,6R,8aS, 9R,10S,12R, 12aR)-3,6,9-trimethyldeca-hydro-12H-3,12-epoxy[1,2]dioxepino[4,3-i]isochromen-10-yl)oxy)benzamido)acetic acid] | –
354 | > 20000 | C[C@H]1[C@@H](OCc2ccc(C(=O)N[C@H]3C[C@@H](C(=O)O)C3)cc2)O[C@@H]2O[C@@]3(C)CC[C@H]4[C@H](C)CC[C@@H]1[C@@]24OO3 [Compound 278, (1R,3s)-3-(4-((((3R,5aS,6R,8aS, 9R,10S,12R, 12aR)-3,6,9-trimethyldeca-hydro-12H-3,12-epoxy[1,2]dioxepino[4,3-i]isochromen-10-yl)oxy)methyl)benzamido) cyclobutane-1-carboxylic acid] | –
65 | 15800 | C[C@H]1[C@@H](OCc2ccc(NC(=O)[C@H]3CC[C@@H](C(=O)O)C3)cc2)O[C@@H]2O[C@@]3(C)CC[C@H]4[C@H](C)CC[C@@H]1[C@@]24OO3 [Compound 294, (1R,3S)-3-((4-((((3R,5aS,6R,8aS, 9R,10S,12R, 12aR)-3,6,9-trimethyldeca-hydro-12H-3,12-epoxy[1,2]dioxepino[4,3-i]isochromen-10-yl)oxy)methyl)phenyl)carbamoyl) cyclopentane-1-carboxylic acid] | –
108 | 4990 | C[C@H]1[C@@H](Oc2ccc(CC(=O)N[C@@H]3C[C@H](C(=O)O)C[C@H]3O)cc2)O[C@@H]2O[C@@]3(C)CC[C@H]4[C@H](C)CC[C@@H]1[C@@]24OO3 [Compound 299, (1S,3R,4R)-3-hydroxy-4-(2-(4-(((3R,5aS,6R,8aS, 9R,10S,12R, 12aR)-3,6,9-trimethyldeca-hydro-12H-3,12-epoxy[1,2]dioxepino[4,3-i]isochromen-10-yl)oxy)phenyl)acetamido) cyclopentane-1-carboxylic acid] | –
242 | > 20000 | C[C@H]1[C@@H](O[C@H]2CC[C@@H](C(=O)N[C@H](C(=O)O)C3CCC3)CC2)O[C@@H]2O[C@@]3(C)CC[C@H]4[C@H](C)CC[C@@H]1[C@@]24OO3 [Compound 252, (S)-2-cyclobutyl-2-((1R,4R)-4-(((3R,5aS,6R,8aS, 9R,10S,12R, 12aR)-3,6,9-trimethyldeca-hydro-12H-3,12-epoxy[1,2]dioxepino[4,3-i]isochromen-10-yl)oxy)cyclohexane-1-carboxamido) acetic acid] | –
21.3 | 1270 | C[C@H]1[C@@H](OC[C@H]2CC[C@@H](C(=O)N[C@H](C(=O)O)C(C)(C)C)CC2)O[C@@H]2O[C@@]3(C)CC[C@H]4[C@H](C)CC[C@@H]1[C@@]24OO3 [Compound 242, (S)-3,3-dimethyl-2-((1R,4R)-4-((((3R,5aS,6R,8aS, 9R,10S,12R, 12aR)-3,6,9-trimethyldeca-hydro-12H-3,12-epoxy[1,2]dioxepino[4,3-i]isochromen-10-yl)oxy)methyl)cyclohexane-1-carboxamido) butanoic acid] | –

More lines, now with the values behind:

Compound | EC50 (HL-60) [nM] | IC50 (in vitro) [nM] | IC50 (in vitro; HL-60 cells) [nM]
C[C@H]1[C@@H](OCc2ccc(C(=O)NC34CCC(C(=O)O)(C3)C4)cc2)O[C@@H]2O[C@@]3(C)CC[C@H]4[C@H](C)CC[C@@H]1[C@@]24OO3 [Compound 293, 4-(4-((((3R,5aS,6R,8aS, 9R,10S,12R, 12aR)-3,6,9-trimethyldeca-hydro-12H-3,12-epoxy[1,2]dioxepino[4,3-i]isochromen-10-yl)oxy)methyl)benzamido) bicyclo[2.1.1] hexane-1-carboxylic acid] | 43.2 | > 20000 | –
C[C@H]1[C@@H](OCc2ccc(C(=O)NC(C)(C)C(=O)O)cc2)O[C@@H]2O[C@@]3(C)CC[C@H]4[C@H](C)CC[C@@H]1[C@@]24OO3 [Compound 284, 2-methyl-2-(4-((((3R,5aS,6R,8aS, 9R,10S,12R, 12aR)-3,6,9-trimethyldeca-hydro-12H-3,12-epoxy[1,2]dioxepino[4,3-i]isochromen-10-yl)oxy)methyl)benzamido) propanoic acid] | 524 | > 20000 | –
C[C@H]1[C@@H](Oc2ccc(OC3(C(=O)O)CC3)cc2)O[C@@H]2O[C@@]3(C)CC[C@H]4[C@H](C)CC[C@@H]1[C@@]24OO3 [Compound 268, 1-(4-(((3R,5aS,6R,8aS, 9R,10S,12R, 12aR)-3,6,9-trimethyldeca-hydro-12H-3,12-epoxy[1,2]dioxepino[4,3-i]isochromen-10-yl)oxy)phenoxy) cyclopropane-1-carboxylic acid] | 48.9 | 4280 | –
C[C@H]1[C@@H](OC/C=C/[C@@H]2CCC[C@H](C(=O)O)C2)O[C@@H]2O[C@@]3(C)CC[C@H]4[C@H](C)CC[C@@H]1[C@@]24OO3 [Compound 269, (1S,3R)-3-((E)-3-(((3R,5aS,6R,8aS, 9R,10S,12R, 12aR)-3,6,9-trimethyldeca-hydro-12H-3,12-epoxy[1,2]dioxepino[4,3-i]isochromen-10-yl)oxy)prop-1-en-1-yl) cyclohexane-1-carboxylic acid] | 143 | 7330 | –
C[C@H]1[C@@H](Oc2ccc(C(=O)Nc3ccc(C(=O)O)cc3)cc2)O[C@@H]2O[C@@]3(C)CC[C@H]4[C@H](C)CC[C@@H]1[C@@]24OO3 [Compound 246, 4-(4-(((3R,5aS,6R,8aS, 9R,10S,12R, 12aR)-3,6,9-trimethyldeca-hydro-12H-3,12-epoxy[1,2]dioxepino[4,3-i]isochromen-10-yl)oxy)benzamido) benzoic acid] | 15.8 | 40 | –
C[C@H]1[C@@H](Oc2ccc(CC(=O)NC34CC(C(=O)O)(C3)C4)cc2)O[C@@H]2O[C@@]3(C)CC[C@H]4[C@H](C)CC[C@@H]1[C@@]24OO3 [Compound 303, 3-(2-(4-(((3R,5aS,6R,8aS, 9R,10S,12R, 12aR)-3,6,9-trimethyldeca-hydro-12H-3,12-epoxy[1,2]dioxepino[4,3-i]isochromen-10-yl)oxy)phenyl)acetamido) bicyclo[1.1.1] pentane-1-carboxylic acid] | 46.4 | > 20000 | –
C[C@H]1[C@@H](OC[C@@]2(F)CCC(C(=O)O)C2)O[C@@H]2O[C@@]3(C)CC[C@H]4[C@H](C)CC[C@@H]1[C@@]24OO3 (stereo partly drawn) [Compound 210, (3R)-3-fluoro-3-((((3R,5aS,6R,8aS, 9R,10S,12R, 12aR)-3,6,9-trimethyldeca-hydro-12H-3,12-epoxy[1,2]dioxepino[4,3-i]isochromen-10-yl)oxy)methyl) cyclopentane-1-carboxylic acid] | 2500 | 7580 | –
C[C@H]1[C@@H](O[C@H]2C[C@@H](C(=O)N[C@H]3CC[C@@H](C(=O)O)C3)C2)O[C@@H]2O[C@@]3(C)CC[C@H]4[C@H](C)CC[C@@H]1[C@@]24OO3 [Compound 201, (1R,3S)-3-((1R,3R)-3-(((3R,5aS,6R,8aS, 9R,10S,12R, 12aR)-3,6,9-trimethyldeca-hydro-12H-3,12-epoxy[1,2]dioxepino[4,3-i]isochromen-10-yl)oxy)cyclo-butane-1-carboxamido) cyclopentane-1-carboxylic acid] | 6730 | – | > 20000
C[C@H]1[C@@H](OCc2ccc(OCC(=O)O)cc2)O[C@@H]2OC3(C)CC[C@H]4[C@H](C)CC[C@@H]1[C@@]24OO3 (stereo in doubt) [Compound 274, 2-(4-((((3R,5aS,6R,8aS, 9R,10S,12R, 12aR)-3,6,9-trimethyldeca-hydro-12H-3,12-epoxy[1,2]dioxepino[4,3-i]isochromen-10-yl)oxy)methyl)phenoxy)acetic acid] | 848 | > 20000 | –
C[C@H]1[C@@H](Oc2ccc(CC(=O)N[C@H]3CC[C@@H](C(=O)O)CC3)cc2)O[C@@H]2O[C@@]3(C)CC[C@H]4[C@H](C)CC[C@@H]1[C@@]24OO3 [Compound 308, (1R,4s)-4-(2-(4-(((3R,5aS,6R,8aS, 9R,10S,12R, 12aR)-3,6,9-trimethyldeca-hydro-12H-3,12-epoxy[1,2]dioxepino[4,3-i]isochromen-10-yl)oxy)phenyl)acetamido) cyclohexane-1-carboxylic acid] | 12.1 | – | > 20000
C[C@H]1[C@@H](Oc2ccc(CC(=O)NC34CCC(C(=O)O)(C3)C4)cc2)O[C@@H]2O[C@@]3(C)CC[C@H]4[C@H](C)CC[C@@H]1[C@@]24OO3 [Compound 300, 4-(2-(4-(((3R,5aS,6R,8aS, 9R,10S,12R, 12aR)-3,6,9-trimethyldeca-hydro-12H-3,12-epoxy[1,2]dioxepino[4,3-i]isochromen-10-yl)oxy)phenyl)acetamido) bicyclo[2.1.1] hexane-1-carboxylic acid] | 17 | 19500 | –
C[C@H]1[C@@H](Oc2c(F)cc(OCC(=O)O)cc2F)O[C@@H]2O[C@@]3(C)CC[C@H]4[C@H](C)CC[C@@H]1[C@@]24OO3 [Compound 238, 2-(3,5-difluoro-4-(((3R,5aS,6R,8aS, 9R,10S,12R, 12aR)-3,6,9-trimethyldeca-hydro-12H-3,12-epoxy[1,2]dioxepino[4,3-i]isochromen-10-yl)oxy)phenoxy) acetic acid] | 71.3 | 6910 | –
